In assay [1] the target is T1, F508delCFTR (Homo sapiens, UniProt P13569, DEL508-508).
T1 construct: expressed in transfected cells; host or cells: CFBE41o- human lung-derived epithelial cells (CFBE41o-F508delCFTR-HRP), doxycycline-inducible
The assay is described as follows: Cell Surface Expression-Horse Radish Peroxidase (CSE-HRP) assay, test compound without co-corrector.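 For Emax: percent of on-plate 2 µM positive control corrector response over DMSO.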 The settings on record: for Emax: maximum at any tested concentration, without co-corrector; for pEC50: test compound without co-corrector. The class given is cell-based. In a few lines: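 Compound without co-corrector was tested at eight 3-fold concentrations, top 20 μM, for 18-24 h at 33° C on doxycycline-induced (0.5 μg/mL, 72 h) CFBE41o- F508delCFTR-HRP cells. After DPBS washes, luminol luminescence gave % activity relative to on-plate positive control minus DMSO; EC50 came from triplicate-plate sigmoidal fitting.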

Assay [2] deals with T1, F508delCFTR. Nature of the assay: Cell Surface Expression-Horse Radish Peroxidase (CSE-HRP) assay, test compound with co-corrector.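 For Maximum % activity (with co-corrector): percent of 2 µM positive control corrector over DMSO; co-corrector is that same compound.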 The format is cell-based. The settings on record: for Maximum % activity (with co-corrector): maximum at any tested concentration. An outline of the steps: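 Surface-expression read-out: luminol luminescence from an HRP tag in the fourth exofacial loop of F508delCFTR, in doxycycline-induced (0.5 μg/mL, 72 h) CFBE41o- cells. Compound plus 2 μM co-corrector added for 18-24 h at 33° C., 8-point 3-fold series up to 20 μM. EC50 from a sigmoidal fit with variable Hill slope, normalised to positive control, triplicate plates.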

Setting [3] is: normalized to positive control, with 2 μM co-corrector.
The mark [4] stands for this setting: normalized to on-plate positive control.
Setting [5] is: CSE-HRP assay, test compound with 2 μM co-corrector.
The mark [6] stands for this setting: normalized to on-plate positive control, with 2 μM co-corrector.

SMILES strings stand for the structures. pEC50: −log10 of the molar value. Some results are limits rather than exact numbers.

T1 sequence (P13569 with tags, fused parts or gaps DEL508-508): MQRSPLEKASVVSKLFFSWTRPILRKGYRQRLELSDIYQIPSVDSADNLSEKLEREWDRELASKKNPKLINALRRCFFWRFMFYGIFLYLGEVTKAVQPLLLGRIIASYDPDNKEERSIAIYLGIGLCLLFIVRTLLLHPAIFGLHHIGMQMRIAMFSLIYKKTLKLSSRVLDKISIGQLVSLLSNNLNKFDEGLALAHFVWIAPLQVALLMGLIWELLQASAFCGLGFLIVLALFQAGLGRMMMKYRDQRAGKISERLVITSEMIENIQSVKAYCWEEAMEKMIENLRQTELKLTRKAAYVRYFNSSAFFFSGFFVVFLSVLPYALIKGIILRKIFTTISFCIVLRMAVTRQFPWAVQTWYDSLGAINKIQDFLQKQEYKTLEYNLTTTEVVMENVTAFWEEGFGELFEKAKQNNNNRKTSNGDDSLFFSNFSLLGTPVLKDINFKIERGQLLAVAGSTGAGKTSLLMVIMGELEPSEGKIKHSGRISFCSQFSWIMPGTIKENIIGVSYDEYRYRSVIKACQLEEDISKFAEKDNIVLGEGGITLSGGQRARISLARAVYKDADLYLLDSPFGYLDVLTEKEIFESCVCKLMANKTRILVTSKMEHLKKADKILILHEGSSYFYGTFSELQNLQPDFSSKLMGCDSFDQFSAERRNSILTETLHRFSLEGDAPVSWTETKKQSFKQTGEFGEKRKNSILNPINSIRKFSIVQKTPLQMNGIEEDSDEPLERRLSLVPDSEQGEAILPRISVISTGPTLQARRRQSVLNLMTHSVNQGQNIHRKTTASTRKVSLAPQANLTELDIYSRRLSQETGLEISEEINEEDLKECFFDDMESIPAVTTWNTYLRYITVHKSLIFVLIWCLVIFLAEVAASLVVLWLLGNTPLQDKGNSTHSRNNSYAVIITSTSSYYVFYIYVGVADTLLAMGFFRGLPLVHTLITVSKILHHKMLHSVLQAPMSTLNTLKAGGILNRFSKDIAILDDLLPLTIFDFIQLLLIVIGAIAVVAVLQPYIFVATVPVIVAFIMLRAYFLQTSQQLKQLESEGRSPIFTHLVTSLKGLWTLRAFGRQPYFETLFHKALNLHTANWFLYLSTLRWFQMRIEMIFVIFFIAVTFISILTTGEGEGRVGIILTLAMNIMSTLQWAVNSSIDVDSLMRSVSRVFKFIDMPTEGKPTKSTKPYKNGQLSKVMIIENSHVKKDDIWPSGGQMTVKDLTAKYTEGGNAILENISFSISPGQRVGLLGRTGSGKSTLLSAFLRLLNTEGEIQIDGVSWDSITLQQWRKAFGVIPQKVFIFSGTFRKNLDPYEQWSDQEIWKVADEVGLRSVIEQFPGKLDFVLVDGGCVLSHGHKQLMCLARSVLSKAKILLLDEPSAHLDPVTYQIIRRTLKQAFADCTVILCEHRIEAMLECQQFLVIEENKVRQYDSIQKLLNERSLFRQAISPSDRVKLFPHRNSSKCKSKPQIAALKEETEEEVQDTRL

`COc1cccc2c1CCC2C(=O)NS(=O)(=O)c1ccc(O)cc1` (stereo not shown) [III-20]: the Emax in assay [1] (normalized to positive control) was less than 50%. The pEC50 in assay [1] and in assay [2] (with 2 μM co-corrector) was not above 5.00 in each case. Also, in assay [2] (setting [3]), the “Maximum % activity (with co-corrector)” value is “+ (<150)”.
The compound `COc1cccc2c1CCC2C(=O)NS(=O)(=O)c1nc2c(c(=O)n(C)c(=O)n2C)n1Cc1ccc(Cl)cc1` (stereo not shown) [III-59] yielded an Emax in assay [1] (normalized to positive control) of less than 50%. The pEC50 in assay [1] and in assay [2] (with 2 μM co-corrector) was not above 5.00 throughout. Moreover, the “Maximum % activity (with co-corrector)” value in assay [2] (setting [3]) is “+ (<150)”.
For `Cc1ccccc1S(=O)(=O)NC(=O)C1CCc2c(-c3cncc(F)c3)cccc21` (stereo not shown) [III-91], the pEC50 in assay [1] (CSE-HRP assay) and in assay [2] (setting [5]) was not above 5.00 each time. This compound also yielded a maximal effect (Emax) in assay [1] (setting [4]) of less than 50%. Further, the “Maximum % activity (with co-corrector)” value in assay [2] (setting [6]) is recorded as “+ (<150)”.
Compound `COc1cccc2c1CCC2C(=O)NS(=O)(=O)c1c(F)cccc1F` (stereo not shown) [III-71] showed an Emax in assay [1] (normalized to positive control) of less than 50%. Besides, the values for the pEC50 in assay [1] and in assay [2] (with 2 μM co-corrector) were not above 5.00 and 5.00 to 5.52, respectively. Also, the “Maximum % activity (with co-corrector)” value in assay [2] (setting [3]) was “++ (≥150 and <350)”.
In turn, `COc1cc2c(cc1OC)C(C(=O)NS(=O)(=O)c1cccc3ccccc13)CCC2` (stereo not shown) [II-53] showed an Emax in assay [1] (normalized to positive control) of 50 to 150%. For the same compound, the pEC50 in assay [1] and in assay [2] (with 2 μM co-corrector) was 5.00 to 5.52 each time. The “Maximum % activity (with co-corrector)” value in assay [2] (setting [3]) was “+++ (≥350)”.
For `O=C(NS(=O)(=O)c1cccc2ccccc12)C1CCc2c(Cl)cccc21` (stereo not shown) [Example I-8, 4-chloro-N-(naphthalene-1-sulfonyl)-2,3-dihydro-1H-indene-1-carboxamide], the Emax in assay [1] (normalized to positive control) was not below 150%. Also, the pEC50 in assay [1] and in assay [2] (with 2 μM co-corrector) was 5.00 to 5.52 each time. In assay [2] (setting [3]), the “Maximum % activity (with co-corrector)” value is listed as “+++ (≥350)”.
For the compound `COc1ccc(/C=C/c2ccccc2)c2c1CCCC2C(=O)NS(=O)(=O)c1cccc2ccccc12` (stereo not shown) [II-96], the Emax in assay [1] (normalized to positive control) was not below 150%. The pEC50 in assay [1] and in assay [2] (with 2 μM co-corrector) was more than 5.52 each time. The “Maximum % activity (with co-corrector)” value in assay [2] (setting [3]) is “+++ (≥350)”.
`COc1cccc2c1CCCC2(Cc1ccccc1)C(=O)NS(=O)(=O)c1cccc2ccccc12` (stereo not shown) [Example I-9, 1-benzyl-5-methoxy-N-(naphthalene-1-sulfonyl)-1,2,3,4-tetrahydronaphthalene-1-carboxamide] yielded an Emax in assay [1] (normalized to positive control) not below 150%. The pEC50 in assay [1] and in assay [2] (with 2 μM co-corrector) was more than 5.52 in each case. Moreover, the “Maximum % activity (with co-corrector)” value in assay [2] (setting [3]) was “+++ (≥350)”.
The compound `CCOc1ccc(Br)c2c1C(C(=O)NS(=O)(=O)c1cccc3ccccc13)CC2` (stereo not shown) [Example I-53, 4-bromo-7-ethoxy-N-(naphthalene-1-sulfonyl)-2,3-dihydro-1H-indene-1-carboxamide] registered a maximal response (Emax) in assay [1] (normalized to positive control) not below 150%. The pEC50 in assay [1] and in assay [2] (with 2 μM co-corrector) was more than 5.52 in each case. Besides, in assay [2] (setting [3]), the “Maximum % activity (with co-corrector)” value is reported as “+++ (≥350)”.
`COc1ccc(C2=CCOCC2)c2c1CCCC2C(=O)NS(=O)(=O)c1cccc2ccccc12` (stereo not shown) [II-130] had an Emax in assay [1] (normalized to positive control) not below 150%. In addition, the negative logarithm of the EC50 (pEC50) in assay [1] and in assay [2] (with 2 μM co-corrector) was more than 5.52 throughout. The “Maximum % activity (with co-corrector)” value in assay [2] (setting [3]) is “+++ (≥350)”.
In turn, `COc1ccc(Br)c2c1C(C(=O)NS(=O)(=O)c1cccc3ccccc13)C2` (stereo not shown) [Example I-79, 2-bromo-5-methoxy-N-(naphthalene-1-sulfonyl)bicyclo[4.2.0]octa-1,3,5-triene-7-carboxamide] gave an Emax in assay [1] (normalized to positive control) not below 150%. The figures for the pEC50 in assay [1] and in assay [2] (with 2 μM co-corrector) were 5.00 to 5.52 and more than 5.52, respectively. For the same compound, the “Maximum % activity (with co-corrector)” value in assay [2] (setting [3]) is “+++ (≥350)”.
The like results for `COc1cccc2c1CCC2C(=O)NS(=O)(=O)c1c(C)noc1C` (stereo not shown) [III-79] were, in that order, less than 50%, not above 5.00, not above 5.00 and “+ (<150)”.
The like results for `COc1cccc2c1CCC2C(=O)NS(=O)(=O)c1ccc(O)c([N+](=O)[O-])c1` (stereo not shown) [III-63] were, in that order, less than 50%, not above 5.00, not above 5.00 and “+ (<150)”.
On the same counts, the results for `CC[C@]1(C(=O)NS(=O)(=O)c2cccc3ccccc23)CCCc2cccc(Cl)c21` [Example I-64, (1S)-8-chloro-1-ethyl-N-(naphthalene-1-sulfonyl)-1,2,3,4-tetrahydronaphthalene-1-carboxamide] are not below 150%, more than 5.52, more than 5.52 and “+++ (≥350)”.
The compound `CCC1(C(=O)NS(=O)(=O)c2cccc3cccc(O)c23)CCc2c(Cl)cccc21` (stereo not shown) [Example I-31, 4-chloro-1-ethyl-N-(8-hydroxynaphthalene-1-sulfonyl)-2,3-dihydro-1H-indene-1-carboxamide] showed an Emax in assay [1] (normalized to positive control) of 50 to 150%. Moreover, the pEC50 in assay [1] and in assay [2] (with 2 μM co-corrector) was more than 5.52 throughout. The “Maximum % activity (with co-corrector)” value in assay [2] (setting [3]) is “+++ (≥350)”.
In assay [1] (normalized to positive control), `COc1cccc(CC2(C(=O)NS(=O)(=O)c3cccc4ccccc34)CCc3c(Cl)cccc32)n1` (stereo not shown) [Example I-37, 4-chloro-1-[(6-methoxypyridin-2-yl)methyl]-N-(naphthalene-1-sulfonyl)-2,3-dihydro-1H-indene-1-carboxamide] gave an Emax of 50 to 150%. The pEC50 in assay [1] and in assay [2] (with 2 μM co-corrector) was 5.00 to 5.52 throughout. Further, the “Maximum % activity (with co-corrector)” value in assay [2] (setting [3]) is reported as “+++ (≥350)”.
Regarding `COc1ccc(-c2ccc(C)nc2)c2c1CCCC2C(=O)NS(=O)(=O)c1cccc2ccccc12` (stereo not shown) [II-122], the Emax in assay [1] (normalized to positive control) is not below 150%. The pEC50 in assay [1] is 5.00 to 5.52; in assay [2] (with 2 μM co-corrector), more than 5.52. Besides, the “Maximum % activity (with co-corrector)” value in assay [2] (setting [3]) is recorded as “+++ (≥350)”.
`CCC1(C(=O)NS(=O)(=O)c2ccc(Oc3ccccc3)cc2)CCc2c(Cl)cccc21` (stereo not shown) [III-143]: the pEC50 in assay [1] (CSE-HRP assay) and in assay [2] (setting [5]) was not above 5.00 each time. In assay [1] (setting [4]), this compound gave an Emax of less than 50%. Moreover, the “Maximum % activity (with co-corrector)” value in assay [2] (setting [6]) is “+ (<150)”.
`COc1ccc(Br)c2c1[C@H](C(=O)NS(=O)(=O)c1cccc3ccccc13)CC2` [Example I-52, (1R)-4-bromo-7-methoxy-N-(naphthalene-1-sulfonyl)-2,3-dihydro-1H-indene-1-carboxamide] gave an Emax in assay [1] (normalized to positive control) not below 150%. For the same compound, the pEC50 in assay [1] and in assay [2] (with 2 μM co-corrector) was more than 5.52 throughout. Also, in assay [2] (setting [3]), the “Maximum % activity (with co-corrector)” value was “+++ (≥350)”.
As for `CCC1(C(=O)NS(=O)(=O)c2ccc(Cl)cc2)CCc2c(Cl)cccc21` (stereo not shown) [III-125], the pEC50 in assay [1] (CSE-HRP assay) and in assay [2] (setting [5]) was 5.00 to 5.52 in each case. In assay [1] (setting [4]), this compound yielded an Emax of less than 50%. For the same compound, the “Maximum % activity (with co-corrector)” value in assay [2] (setting [6]) is “++ (≥150 and <350)”.
Take `CCC1(C(=O)NS(=O)(=O)c2cccc3nccnc23)CCc2c(Cl)cccc21` (stereo not shown) [II-105]: the Emax in assay [1] (normalized to positive control) is less than 50%. The figures for the pEC50 in assay [1] and in assay [2] (with 2 μM co-corrector) were not above 5.00 and more than 5.52, respectively. In assay [2] (setting [3]), the “Maximum % activity (with co-corrector)” value is on record as “+ (<150)”.
The like results for `COc1ccc(C2CCC2)c2c1[C@H](C(=O)NS(=O)(=O)c1cccc3ncc(C)n13)C2` [Example I-155, (7R)-2-cyclobutyl-5-methoxy-N-(3-methylimidazo[1,2-a]pyridine-5-sulfonyl)bicyclo[4.2.0]octa-1,3,5-triene-7-carboxamide] were, in that order, not below 150%, 5.00 to 5.52, more than 5.52 and “+++ (≥350)”.
On the same counts, the results for `COc1ccc2c(c1)CC[C@@]2(C)C(=O)NS(=O)(=O)c1cccc2ccccc12` [II-44] are 50 to 150%, 5.00 to 5.52, 5.00 to 5.52 and “+++ (≥350)”.
On the same counts, the results for `COc1cccc2c1CCC2C(=O)NS(=O)(=O)c1cc(C(=O)Nc2c(C)cccc2C)c(O)cc1Cl` (stereo not shown) [III-50] are less than 50%, not above 5.00, not above 5.00 and “+ (<150)”.
In assay [1] (normalized to positive control), `Cc1ccccc1S(=O)(=O)NC(=O)C1CCc2c(OC(C)C)cccc21` (stereo not shown) [II-40] showed an Emax of 50 to 150%. Besides, the pEC50 in assay [1] and in assay [2] (with 2 μM co-corrector) was 5.00 to 5.52 in each case. In addition, the “Maximum % activity (with co-corrector)” value in assay [2] (setting [3]) was “++ (≥150 and <350)”.
For the compound `COc1ccc(C2CC2)c2c1C(C(=O)NS(=O)(=O)c1cccc3ccccc13)CCC2` (stereo not shown) [Example I-88, 5-cyclopropyl-8-methoxy-N-(naphthalene-1-sulfonyl)-1,2,3,4-tetrahydronaphthalene-1-carboxamide], in assay [1] (normalized to positive control), the Emax was not below 150%. In addition, the pEC50 in assay [1] and in assay [2] (with 2 μM co-corrector) was more than 5.52 each time. The “Maximum % activity (with co-corrector)” value in assay [2] (setting [3]) is on record as “+++ (≥350)”.
`COc1ccc(C2CCC2)c2c1C(C(=O)NS(=O)(=O)c1cccc3ncccc13)C2` (stereo not shown) [Example I-114, 2-cyclobutyl-5-methoxy-N-(quinoline-5-sulfonyl)bicyclo[4.2.0]octa-1,3,5-triene-7-carboxamide]: the maximal response (Emax) in assay [1] (normalized to positive control) is not below 150%. Also, the pEC50 in assay [1] and in assay [2] (with 2 μM co-corrector) was more than 5.52 in each case. Also, the “Maximum % activity (with co-corrector)” value in assay [2] (setting [3]) is listed as “+++ (≥350)”.
Consider `Cc1ccccc1S(=O)(=O)NC(=O)C1CCc2c(Cl)cccc21` (stereo not shown) [Example II-3, 4-chloro-N-(2-methylbenzene-1-sulfonyl)-2,3-dihydro-1H-indene-1-carboxamide], for which the Emax in assay [1] (normalized to positive control) is 50 to 150%. For the same compound, the pEC50 in assay [1] and in assay [2] (with 2 μM co-corrector) was 5.00 to 5.52 in each case. In assay [2] (setting [3]), the “Maximum % activity (with co-corrector)” value is given as “+++ (≥350)”.

As usually defined, the Emax is the greatest response seen or fitted, relative to the assay's reference. The term pEC50 denotes −log10 of the EC50, conventionally taken in molar units. High values mean a low EC50, low ones a high EC50.

Source of the values: US20180244611A1, “Modulators of the Cystic Fibrosis Transmembrane Conductance Regulator Protein and Methods of Use” (AbbVie S.à.r.l., priority 2017, published 2018).
